According to ChEMBL document CHEMBL4311992, “Discovery of 3-(((9H-purin-6-yl)amino)methyl)-4,6-dimethylpyridin-2(1H)-one derivatives as novel tubulin polymerization inhibitors for treatment of cancer” (Eur J Med Chem, 2019):
Activity calls are given as the source filed them. The rule behind the calls is not given here.

Columns and labels:
[1] = system: Serine/threonine-protein kinase Chk2 (Homo sapiens), O96017 [R145W]; assay: Inhibition of recombinant human CHK2 R145W mutant (5 to end residues) assessed as residual activity at 10 uM using KKKVSRSGLYRSPSMPENLNRPR as substrate measured after 40 mins in presence of [gamma33P]ATP by scintillation counting method
[2] = biological target: Mitogen-activated protein kinase 8 (Homo sapiens) (UniProt P45983); assay: Inhibition of recombinant full-length human JNK1alpha1 assessed as residual activity at 10 uM using ATF2 as substrate measured after 40 mins in presence of [gamma33P]ATP by scintillation counting method
[3] = system: Receptor-type tyrosine-protein kinase FLT3 (Homo sapiens), P36888 [D835Y]; assay: Inhibition of recombinant human Flt3 D835Y mutant (564 to end residues) assessed as residual activity at 10 uM using EAIYAAPFAKKK as substrate measured after 40 mins in presence of [gamma33P]ATP by scintillation counting method
SW-620 [4] = assay: Induction of apoptosis in human SW620 cells assessed as decrease in Bcl2 expression up to 200 nM measured after 48 hrs by Western blot analysis; assay type: functional, cell-based
Mus musculus = species: Mus musculus; assay: Inhibition of recombinant full-length mouse PI3K p110alpha/p85alpha H1047R mutant assessed as residual activity at 10 uM using phosphatidylinositol-4, 5-bisphosphate as substrate measured after 40 mins by HTRF assay
[5] = biological target: Serine/threonine-protein kinase 25 (Homo sapiens) (UniProt O00506); assay: Inhibition of human STK25 (1 to 308 residues) using RLGRDKYKTLRQIRQ as substrate measured after 40 mins in presence of [gamma33P]ATP by scintillation counting method; parameters: scale not given: the % may be the effect or the level left
[6] = system: Angiopoietin-1 receptor (Homo sapiens), Q02763 [Q939H,Q940H,Y897S]; assay: Inhibition of human Tie2 Q939H/Q940H/Y897S mutant (771 to end residues) using EFPIYDFLPAKKK as substrate measured after 40 mins in presence of [gamma33P]ATP by scintillation counting method; parameters: scale not given: the % may be the effect or the level left
[7] = biological target: Ephrin type-B receptor 3 (Homo sapiens) (UniProt P54753); assay: Inhibition of recombinant human EphB3 (599 to 920 residues) assessed as residual activity at 10 uM using poly (Glu, Tyr) 4:1 as substrate measured after 40 mins in presence of [gamma33P]ATP by scintillation counting method
HCT-15 = assay: Antiproliferative activity against human HCT15 cells assessed as reduction in cell viability after 72 hrs by MTT assay; assay type: functional, cell-based; details: HCT-15, 72 h
[8] = system: Tyrosine-protein kinase BTK (Homo sapiens), Q06187 [R28H]; assay: Inhibition of full-length recombinant human BTK R28H mutant assessed as residual activity at 10 uM using LSNLYHQGKFLQTFCGSPLYRRR as substrate measured after 40 mins in presence of [gamma33P]ATP by scintillation counting method
[9] = biological target: Glycogen synthase kinase-3 alpha (Homo sapiens) (UniProt P49840); assay: Inhibition of recombinant human GSK3alpha (2 to end residues) assessed as residual activity at 10 uM using phospho GS2 peptide as substrate measured after 40 mins in presence of [gamma33P]ATP by scintillation counting method
[10] = biological target: [Pyruvate dehydrogenase (acetyl-transferring)] kinase isozyme 2, mitochondrial (Homo sapiens) (UniProt Q15119); assay: Inhibition of human PDHK2 assessed as residual activity at 10 uM by radiometric method
[11] = biological target: Aurora kinase B (Homo sapiens) (UniProt Q96GD4); assay: Inhibition of recombinant full-length human AURKB assessed as residual activity at 10 uM using AKRRRLSSLRA as substrate measured after 40 mins in presence of [gamma33P]ATP by scintillation counting method
[12] = biological target: Dual specificity protein kinase CLK2 (Homo sapiens) (UniProt P49760); assay: Inhibition of recombinant human CLK2 (138 to end residues) assessed as residual activity at 10 uM using YRRAAVPPSPSLSRHSSPHQS(p)EDEEE as substrate measured after 40 mins in presence of [gamma33P]ATP by scintillation counting method
[13] = biological target: Serine/threonine-protein kinase SIK3 (Homo sapiens) (UniProt Q9Y2K2); assay: Inhibition of human SIK3 (1 to 307 residues) using KKKVSRSGLYRSPSMPENLNRPR as substrate measured after 40 mins in presence of [gamma33P]ATP by scintillation counting method; parameters: scale not given: the % may be the effect or the level left
Homo sapiens = species: Homo sapiens; assay: Inhibition of recombinant full-length human PKBalpha S478G mutant assessed as residual activity at 10 uM using GRPRTSSFAEGKK as substrate measured after 40 mins in presence of [gamma33P]ATP by scintillation counting method
[14] = biological target: Cyclin-dependent kinase-like 2 (Homo sapiens) (UniProt Q92772); assay: Inhibition of human CDKL2 assessed as residual activity at 10 uM by radiometric method
[15] = biological target: CDK4/Cyclin D3 (Homo sapiens) (UniProt P11802+P30281); assay: Inhibition of recombinant full-length human CDK4/cyclinD3 assessed as residual activity at 10 uM using Rb fragment as substrate measured after 40 mins in presence of [gamma33P]ATP by scintillation counting method; assay type: protein-complex assay
[16] = biological target: cAMP-dependent protein kinase catalytic subunit alpha (Homo sapiens) (UniProt P17612); assay: Inhibition of recombinant full-length human PKA assessed as residual activity at 10 uM using Kemptide as substrate measured after 40 mins in presence of [gamma33P]ATP by scintillation counting method
[17] = biological target: SRSF protein kinase 1 (Homo sapiens) (UniProt Q96SB4); assay: Inhibition of human SRPK1 (2 to end residues) using RSRSRSRSRSRSRSR as substrate measured after 40 mins in presence of [gamma33P]ATP by scintillation counting method; parameters: scale not given: the % may be the effect or the level left
SW-620 [18] = assay: Induction of apoptosis in human SW620 cells measured after 48 hrs by Annexin V-FITC/propidium iodide staining-based flow cytometric analysis; assay type: functional, cell-based
[19] = biological target: Misshapen-like kinase 1 (Homo sapiens) (UniProt Q8N4C8); assay: Inhibition of recombinant human MINK (1 to 310 residues) assessed as residual activity at 10 uM using myelin basic protein as substrate measured after 40 mins in presence of [gamma33P]ATP by scintillation counting method
HCT-116 = assay: Cell cycle arrest in human HCT116 cells assessed as up regulation of CDK1 expression up to 150 nM after 24 hrs by Western blot analysis; assay type: functional, cell-based
[20] = system: RAF proto-oncogene serine/threonine-protein kinase (Homo sapiens), P04049 [Y340D,Y341D]; assay: Inhibition of recombinant human c-RAF Y340D/Y341D mutant (360 to end residues) assessed as residual activity at 10 uM using inactive MEK1 as substrate measured after 40 mins in presence of [gamma33P]ATP by scintillation counting method
[21] = biological target: PI3K p110 delta/p85 alpha (Mus musculus) (UniProt P26450+O35904); assay: Inhibition of recombinant full-length mouse PI3K p110delta/p85alpha assessed as residual activity at 10 uM using phosphatidylinositol-4, 5-bisphosphate as substrate measured after 40 mins by HTRF assay; assay type: protein-complex assay

Mitogen-activated protein kinase 8 (Homo sapiens), sequence (P45983 whole entry): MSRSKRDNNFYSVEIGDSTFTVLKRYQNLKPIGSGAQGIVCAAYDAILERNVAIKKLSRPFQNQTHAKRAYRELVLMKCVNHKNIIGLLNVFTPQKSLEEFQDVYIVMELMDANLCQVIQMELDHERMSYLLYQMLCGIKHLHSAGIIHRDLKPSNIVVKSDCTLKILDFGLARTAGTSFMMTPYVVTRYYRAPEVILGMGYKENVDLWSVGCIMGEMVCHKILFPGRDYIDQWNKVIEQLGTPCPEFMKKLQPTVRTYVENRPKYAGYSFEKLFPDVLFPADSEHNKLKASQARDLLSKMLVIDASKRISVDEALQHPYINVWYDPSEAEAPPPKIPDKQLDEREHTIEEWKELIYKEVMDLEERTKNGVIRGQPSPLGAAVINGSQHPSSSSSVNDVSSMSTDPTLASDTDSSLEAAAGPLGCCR
Dual specificity protein kinase CLK2 (Homo sapiens), sequence (P49760 whole entry, looked up, the tested form may be a part): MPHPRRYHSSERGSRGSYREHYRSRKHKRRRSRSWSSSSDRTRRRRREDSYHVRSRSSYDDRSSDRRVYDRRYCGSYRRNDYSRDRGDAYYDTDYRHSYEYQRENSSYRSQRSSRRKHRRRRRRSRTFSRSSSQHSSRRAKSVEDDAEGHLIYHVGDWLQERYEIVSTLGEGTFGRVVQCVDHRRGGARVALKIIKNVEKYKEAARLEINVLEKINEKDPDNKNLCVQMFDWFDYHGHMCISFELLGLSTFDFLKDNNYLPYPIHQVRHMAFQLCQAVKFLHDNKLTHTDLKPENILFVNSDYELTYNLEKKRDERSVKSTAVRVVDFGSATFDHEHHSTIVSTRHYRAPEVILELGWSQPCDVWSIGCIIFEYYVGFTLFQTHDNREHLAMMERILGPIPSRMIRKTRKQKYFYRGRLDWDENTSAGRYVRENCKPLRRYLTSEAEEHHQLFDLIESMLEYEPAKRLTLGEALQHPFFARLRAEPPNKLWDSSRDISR
Cyclin-dependent kinase-like 2 (Homo sapiens), sequence (Q92772 whole entry, the tested form may be a part): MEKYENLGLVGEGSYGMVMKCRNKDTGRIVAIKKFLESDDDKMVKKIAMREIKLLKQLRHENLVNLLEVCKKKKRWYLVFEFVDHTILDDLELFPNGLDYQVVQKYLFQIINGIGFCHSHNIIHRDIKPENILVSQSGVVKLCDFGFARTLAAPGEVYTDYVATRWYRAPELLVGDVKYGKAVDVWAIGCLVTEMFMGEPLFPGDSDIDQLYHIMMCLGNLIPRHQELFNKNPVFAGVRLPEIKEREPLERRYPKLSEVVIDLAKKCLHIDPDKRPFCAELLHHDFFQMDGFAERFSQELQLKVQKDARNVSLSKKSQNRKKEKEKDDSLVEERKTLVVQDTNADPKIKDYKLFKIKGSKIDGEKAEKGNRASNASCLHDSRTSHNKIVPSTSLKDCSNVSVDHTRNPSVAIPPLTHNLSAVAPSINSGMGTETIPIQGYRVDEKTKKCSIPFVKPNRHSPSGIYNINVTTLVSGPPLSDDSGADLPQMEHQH
SRSF protein kinase 1 (Homo sapiens), sequence (Q96SB4 whole entry): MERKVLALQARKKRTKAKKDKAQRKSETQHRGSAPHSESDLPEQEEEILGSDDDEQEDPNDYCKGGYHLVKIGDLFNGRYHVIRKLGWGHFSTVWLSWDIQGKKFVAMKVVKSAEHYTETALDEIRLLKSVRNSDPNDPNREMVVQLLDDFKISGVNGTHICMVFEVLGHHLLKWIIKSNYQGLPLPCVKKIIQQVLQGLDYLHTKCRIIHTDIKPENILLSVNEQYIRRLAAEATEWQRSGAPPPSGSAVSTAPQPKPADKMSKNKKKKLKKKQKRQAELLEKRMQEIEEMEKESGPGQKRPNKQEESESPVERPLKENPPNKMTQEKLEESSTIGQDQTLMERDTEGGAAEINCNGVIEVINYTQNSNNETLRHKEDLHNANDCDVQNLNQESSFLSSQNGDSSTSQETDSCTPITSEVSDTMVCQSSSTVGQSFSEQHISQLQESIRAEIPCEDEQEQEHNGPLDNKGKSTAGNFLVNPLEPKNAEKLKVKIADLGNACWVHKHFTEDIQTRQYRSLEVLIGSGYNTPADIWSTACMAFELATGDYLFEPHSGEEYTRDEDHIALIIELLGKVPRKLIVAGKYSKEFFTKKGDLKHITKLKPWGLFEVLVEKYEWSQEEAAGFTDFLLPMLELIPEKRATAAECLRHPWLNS
Angiopoietin-1 receptor (Homo sapiens), Q02763 [Q939H,Q940H,Y897S], sequence (Q02763 whole entry Y897S/Q939H/Q940H, the tested form may be a part): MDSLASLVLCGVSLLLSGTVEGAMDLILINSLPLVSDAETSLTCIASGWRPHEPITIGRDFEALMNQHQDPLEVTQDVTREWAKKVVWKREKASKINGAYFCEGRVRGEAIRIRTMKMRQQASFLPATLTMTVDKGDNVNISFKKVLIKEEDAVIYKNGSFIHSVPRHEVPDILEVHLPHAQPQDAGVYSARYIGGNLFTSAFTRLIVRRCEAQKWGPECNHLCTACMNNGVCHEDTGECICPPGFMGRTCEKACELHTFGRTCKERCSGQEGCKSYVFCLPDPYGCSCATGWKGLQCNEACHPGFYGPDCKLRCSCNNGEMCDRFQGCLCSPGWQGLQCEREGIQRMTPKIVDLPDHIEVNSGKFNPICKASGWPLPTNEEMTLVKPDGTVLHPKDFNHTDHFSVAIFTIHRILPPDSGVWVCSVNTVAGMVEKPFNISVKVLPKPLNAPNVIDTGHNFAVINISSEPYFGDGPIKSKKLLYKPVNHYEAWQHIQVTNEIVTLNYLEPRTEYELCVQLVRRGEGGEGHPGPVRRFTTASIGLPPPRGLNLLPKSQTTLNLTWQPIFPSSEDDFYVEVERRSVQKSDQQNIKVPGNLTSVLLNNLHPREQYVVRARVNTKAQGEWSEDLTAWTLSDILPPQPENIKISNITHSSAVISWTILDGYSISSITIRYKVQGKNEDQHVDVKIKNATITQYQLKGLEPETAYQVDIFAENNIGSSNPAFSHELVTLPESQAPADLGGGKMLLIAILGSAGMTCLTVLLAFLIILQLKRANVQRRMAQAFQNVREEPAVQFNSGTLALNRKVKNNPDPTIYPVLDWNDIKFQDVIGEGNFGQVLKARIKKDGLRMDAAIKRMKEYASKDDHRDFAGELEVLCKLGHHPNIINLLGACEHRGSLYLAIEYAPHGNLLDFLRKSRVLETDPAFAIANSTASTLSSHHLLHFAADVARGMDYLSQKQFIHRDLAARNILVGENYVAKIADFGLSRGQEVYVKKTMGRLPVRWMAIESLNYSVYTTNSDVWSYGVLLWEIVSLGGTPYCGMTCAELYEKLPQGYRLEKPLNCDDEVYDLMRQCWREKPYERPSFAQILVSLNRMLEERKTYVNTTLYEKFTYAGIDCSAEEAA
Serine/threonine-protein kinase 25 (Homo sapiens), sequence (O00506 whole entry, looked up, the tested form may be a part): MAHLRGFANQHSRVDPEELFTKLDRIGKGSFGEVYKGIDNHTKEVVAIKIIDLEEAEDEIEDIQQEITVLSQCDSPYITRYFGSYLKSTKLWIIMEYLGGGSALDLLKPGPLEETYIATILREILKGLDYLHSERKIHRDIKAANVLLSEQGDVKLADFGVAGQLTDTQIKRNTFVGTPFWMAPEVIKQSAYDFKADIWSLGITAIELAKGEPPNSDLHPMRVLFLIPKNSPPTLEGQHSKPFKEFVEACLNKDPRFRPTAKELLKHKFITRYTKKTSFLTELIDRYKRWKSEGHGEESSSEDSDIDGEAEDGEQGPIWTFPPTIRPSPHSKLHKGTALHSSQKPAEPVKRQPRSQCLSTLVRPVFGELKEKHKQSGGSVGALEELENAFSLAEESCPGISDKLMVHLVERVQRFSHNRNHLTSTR
Tyrosine-protein kinase BTK (Homo sapiens), Q06187 [R28H], sequence (Q06187 whole entry R28H): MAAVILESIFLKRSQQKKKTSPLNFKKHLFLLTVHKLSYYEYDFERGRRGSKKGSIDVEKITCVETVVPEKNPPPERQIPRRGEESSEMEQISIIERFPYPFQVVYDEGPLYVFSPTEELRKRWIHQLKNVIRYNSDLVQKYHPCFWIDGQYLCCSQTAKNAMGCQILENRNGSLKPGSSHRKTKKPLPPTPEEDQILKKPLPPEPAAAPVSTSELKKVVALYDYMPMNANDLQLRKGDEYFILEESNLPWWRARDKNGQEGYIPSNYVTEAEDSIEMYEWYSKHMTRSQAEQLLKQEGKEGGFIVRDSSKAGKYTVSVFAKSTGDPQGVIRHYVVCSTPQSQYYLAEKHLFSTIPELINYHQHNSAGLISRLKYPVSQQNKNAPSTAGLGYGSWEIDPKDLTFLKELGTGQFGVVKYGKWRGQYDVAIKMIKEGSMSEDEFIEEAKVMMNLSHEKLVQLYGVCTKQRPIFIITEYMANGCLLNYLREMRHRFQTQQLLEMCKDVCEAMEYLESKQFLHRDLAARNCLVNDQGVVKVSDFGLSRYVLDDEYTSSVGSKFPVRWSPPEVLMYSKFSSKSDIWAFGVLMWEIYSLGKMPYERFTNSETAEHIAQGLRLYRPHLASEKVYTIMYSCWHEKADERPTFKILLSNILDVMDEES
Serine/threonine-protein kinase Chk2 (Homo sapiens), O96017 [R145W], sequence (O96017 whole entry R145W): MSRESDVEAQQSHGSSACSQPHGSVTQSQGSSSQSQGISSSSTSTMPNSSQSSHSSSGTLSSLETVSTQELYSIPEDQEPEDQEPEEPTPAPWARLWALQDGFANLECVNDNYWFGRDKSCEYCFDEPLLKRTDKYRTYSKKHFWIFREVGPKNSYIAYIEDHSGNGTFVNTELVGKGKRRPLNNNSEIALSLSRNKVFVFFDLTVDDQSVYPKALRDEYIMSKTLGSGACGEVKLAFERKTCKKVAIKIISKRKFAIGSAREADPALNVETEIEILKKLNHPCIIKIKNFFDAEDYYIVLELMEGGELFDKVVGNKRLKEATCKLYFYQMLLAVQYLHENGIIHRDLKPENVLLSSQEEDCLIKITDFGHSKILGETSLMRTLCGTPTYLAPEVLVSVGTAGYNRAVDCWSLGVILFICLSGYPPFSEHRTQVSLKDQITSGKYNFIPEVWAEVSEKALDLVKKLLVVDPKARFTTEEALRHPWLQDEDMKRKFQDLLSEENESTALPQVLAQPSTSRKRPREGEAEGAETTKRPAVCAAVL

With `Cc1cc(C)c(CNc2nc(Cl)nc3c2ncn3C2CCCC2)c(=O)[nH]1` the Activity [1] was 103%, the Activity [2] was 96% and the Activity [3] was 85.5%. For the same compound, the Activity (SW-620 [4]) was “Active”, the Activity (Mus musculus) was 99% and the Activity [5] was 106%. It also gave an Activity [6] of 114%, an Activity [7] of 110% and an IC50 (HCT-15) of 0.061 µM. The Activity [8] was 98%, the Activity [9] was 102% and the Activity [10] was 128%. The Activity [11] was 143%, the Activity [12] was 132% and the Activity [13] was 119%. For the same compound, the Activity (Homo sapiens) was 105%, the Activity [14] was 131% and the Activity [15] was 91%. The Activity [16] was 91%, the Activity [17] was 101% and the Activity (SW-620 [18]) was “Dose-dependent effect”. The Activity [19] was 94%, the Activity (HCT-116) was “Active” and the Activity [20] was 96.5%. For the same compound, the Activity [21] was 100%.
